Assay results taken from the supplement of paper PMC13380429.

Columns and labels:
Conditions in all cases: 72 h
U2OS [1] = assay: drug sensitivity score (DSS) for viability; higher = more toxic; extreme values may be limits of the assay
Vero E6 [2] = assay: as above
Calu-3 [3] = assay: as above
Caco-2 [4] = assay: as above
HepG2 [5] = assay: as above
U2OS [6] = assay: relative viability EC50 (midpoint between 100% and the lowest measured viability); higher = less toxic
Vero E6 [7] = assay: as above
Calu-3 [8] = assay: as above
HepG2 [9] = assay: as above
U2OS [10] = assay: cell viability relative to DMSO; higher = less toxic
Vero E6 [11] = assay: as above
Calu-3 [12] = assay: as above
Caco-2 [13] = assay: as above
HepG2 [14] = assay: as above
Caco-2 [15] = assay: relative viability EC50 (midpoint between 100% and the lowest measured viability); higher = less toxic

Row | Compound | drug sensitivity score (U2OS [1]) | drug sensitivity score (Vero E6 [2]) | drug sensitivity score (Calu-3 [3]) | drug sensitivity score (Caco-2 [4]) | drug sensitivity score (HepG2 [5]) | relative viability EC50 (U2OS [6]) | relative viability EC50 (Vero E6 [7]) | relative viability EC50 (Calu-3 [8]) | relative viability EC50 (HepG2 [9]) | cell viability (U2OS [10]; 1 nM) | cell viability (U2OS [10]; 10 nM) | cell viability (U2OS [10]; 100 nM) | cell viability (U2OS [10]; 1000 nM) | cell viability (U2OS [10]; 10000 nM) | cell viability (Vero E6 [11]; 1 nM) | cell viability (Vero E6 [11]; 10 nM) | cell viability (Vero E6 [11]; 100 nM) | cell viability (Vero E6 [11]; 1000 nM) | cell viability (Vero E6 [11]; 10000 nM) | cell viability (Calu-3 [12]; 1 nM) | cell viability (Calu-3 [12]; 10 nM) | cell viability (Calu-3 [12]; 100 nM) | cell viability (Calu-3 [12]; 1000 nM) | cell viability (Calu-3 [12]; 10000 nM) | cell viability (Caco-2 [13]; 1 nM) | cell viability (Caco-2 [13]; 10 nM) | cell viability (Caco-2 [13]; 100 nM) | cell viability (Caco-2 [13]; 1000 nM) | cell viability (Caco-2 [13]; 10000 nM) | cell viability (HepG2 [14]; 1 nM) | cell viability (HepG2 [14]; 10 nM) | cell viability (HepG2 [14]; 100 nM) | cell viability (HepG2 [14]; 1000 nM) | cell viability (HepG2 [14]; 10000 nM) | relative viability EC50 (Caco-2 [15])
1 | CCCCCS(=O)(=O)CCCCCCCCCCn1c(-c2ccc(O)cc2)c(C)c2cc(O)ccc21 | 0 | 1 | 0.6 | 2.8 | 4.1 | > 10 µM | > 10 µM | > 10 µM | 2.77 µM | 99.2% | 96.6% | 100% | 101% | 91.5% | 95% | 99.3% | 100% | 98.1% | 77.6% | 101% | 98.3% | 100% | 106% | 76.5% | 86.2% | 98.7% | 97.7% | 96.8% | 55.5% | 104% | 92.3% | 98.5% | 96.6% | 33.8% | 
2 | CCN(CC)CCCCNc1ncc2cc(-c3c(Cl)cccc3Cl)c(NC(=O)NC(C)(C)C)nc2n1 | 6.7 | 3.8 | 7.2 | 4.4 | 7.5 | 1.38 µM | 3.48 µM | 1.34 µM | 0.885 µM | 100% | 101% | 95.2% | 76.8% | 31.9% | 102% | 102% | 104% | 104% | 25.2% | 104% | 90% | 104% | 77.2% | 29.8% | 98.4% | 94.3% | 96% | 75.2% | 69.5% | 98.3% | 102% | 106% | 65.5% | 40.3% | 
3 | CCOC(=O)c1ncc2[nH]c3cccc(OC(C)C)c3c2c1C |  |  | 0.8 | 0.8 | 0 |  |  |  | > 10 µM |  |  |  |  |  |  |  |  |  |  | 88.7% | 112% | 99.1% | 104% | 74.9% | 101% | 113% | 109% | 103% | 75% | 114% | 102% | 137% | 98.8% | 109% | > 10 µM
4 | COc1ccc(CNC(=O)Nc2ncc([N+](=O)[O-])s2)cc1 | 0 | 0 | 0 | 0.9 | 3.9 | > 10 µM | > 10 µM | > 10 µM | 3.15 µM | 96.1% | 104% | 96.5% | 102% | 90.8% | 106% | 104% | 101% | 102% | 97.2% | 104% | 107% | 94.9% | 107% | 96.5% | 105% | 103% | 95.5% | 103% | 73.7% | 113% | 107% | 102% | 99.8% | 30.3% | 
5 | Cc1n[nH]c(C)c1Cc1sc2c(c1C(=O)N1C[C@H](O)CO1)c(=O)n(C)c(=O)n2CC(C)C | 1.2 | 0 | 0 | 10.2 | 0 | > 10 µM | > 10 µM | > 10 µM | > 10 µM | 97.8% | 92.6% | 89.4% | 86.7% | 89.7% | 89.7% | 98.7% | 92.9% | 95.7% | 101% | 102% | 86.3% | 99.4% | 93.3% | 99.8% | 91.3% | 79.3% | 77.2% | 67.4% | 69% | 97% | 108% | 95% | 98.8% | 109% | 
6 | Nc1nc(Nc2ccc(S(N)(=O)=O)cc2)nn1C(=O)c1c(F)cccc1F | 5.1 | 1.5 | 2.6 | 1.4 | 8.6 | 3.41 µM |  | 4.32 µM | 1.53 µM | 102% | 102% | 100% | 104% | 2.1% | 107% | 104% | 106% | 99.1% | 68.7% | 102% | 97.1% | 98.1% | 127% | 33.2% | 107% | 100% | 101% | 106% | 63.7% | 103% | 103% | 92.8% | 76.7% | 8.9% | 
7 | COc1ccc2c(Oc3ccc(NC(=O)c4c(C)n(CC(C)(C)O)n(-c5ccccc5)c4=O)nc3)ccnc2c1 [AMG458] | 0 | 0 | 0.5 | 1.8 | 3 | > 10 µM | > 10 µM | > 10 µM |  | 102% | 116% | 99.3% | 103% | 93.3% | 104% | 103% | 104% | 98.6% | 102% | 99.1% | 106% | 100% | 92.7% | 86.6% | 99.6% | 106% | 90.8% | 95.9% | 72% | 99.3% | 92.2% | 98.2% | 88.3% | 65.8% | 
8 | CC(C)(C)c1cc(C(=O)/C=C/c2ccc(C(=O)O)cc2)cc(C(C)(C)C)c1 [CH55] | 2 |  | 4.3 | 2.4 | 0 |  |  | > 10 µM | > 10 µM | 98.2% | 97.3% | 91% | 97.7% | 64.4% |  |  |  |  |  | 92% | 92.1% | 76.9% | 87.5% | 77.8% | 102% | 87.3% | 90.8% | 93.3% | 67% | 109% | 113% | 120% | 105% | 91.9% | 
9 | c1ccc(-c2cnn3cc(-c4ccc(OCCN5CCOCC5)cc4)cnc23)cc1 [DMH4] | 0.7 | 0 | 0 | 1.6 | 4 | > 10 µM | > 10 µM | > 10 µM |  | 102% | 101% | 99.6% | 98.6% | 80.8% | 97.1% | 101% | 101% | 91.4% | 104% | 101% | 107% | 89.6% | 114% | 85.9% | 105% | 97.9% | 93.6% | 96.1% | 74.3% | 96.4% | 95.1% | 98.2% | 91.5% | 50.7% | 
10 | COc1cc(C=O)c([N+](=O)[O-])cc1OC [DMNB] |  | 0 | 0 |  |  |  | > 10 µM | > 10 µM |  |  |  |  |  |  | 103% | 100% | 99.2% | 96.9% | 96.6% | 102% | 102% | 103% | 96.9% | 107% |  |  |  |  |  |  |  |  |  |  | 
11 | O=C1c2ccccc2C(Cc2ccnc(F)c2)(Cc2ccnc(F)c2)c2ccccc21 [DMP-543] | 0 | 0 | 1.7 | 3.3 | 0 | > 10 µM | > 10 µM | > 10 µM | > 10 µM | 99.8% | 105% | 96% | 96.6% | 95.1% | 101% | 101% | 100% | 97.7% | 94.8% | 103% | 92.1% | 85.9% | 92% | 81.3% | 97.2% | 100% | 92.5% | 81.2% | 72.9% | 90.1% | 100% | 94.4% | 95.4% | 89.4% | 
12 | O=C(/C=C\n1cnc(-c2cc(C(F)(F)F)cc(C(F)(F)F)c2)n1)N1CC(F)(F)C1 [KPT-276] | 8.2 | 8.1 | 6.7 | 5.4 | 12.8 | 1.3 µM | 0.611 µM |  | 0.19 µM | 106% | 96% | 91.4% | 68% | 17.3% | 93.5% | 96.1% | 82.3% | 69.8% | 36.9% | 97.3% | 102% | 97.2% | 64.1% | 68.3% | 104% | 91.2% | 88.8% | 73.9% | 66.2% | 100% | 85.5% | 80% | 44.4% | 32.8% | 
13 | O=C(c1cccc(Cl)c1F)N1CCN(Cc2cccc(Nc3nccs3)n2)CC1 [MK-8745] | 1.6 | 1.6 | 0 | 2.8 | 8.7 |  | > 10 µM | > 10 µM | 0.676 µM | 102% | 99.5% | 98.5% | 98.4% | 69.1% | 99.2% | 101% | 99% | 90.2% | 78% | 92.6% | 88.5% | 92% | 85.1% | 92.2% | 92.1% | 94.2% | 91.7% | 86.5% | 70.7% | 105% | 115% | 101% | 54.7% | 37.7% | 
14 | CC(C)NC(=O)N1CC[C@H](NC2=Nc3cc(F)ccc3N(CC(F)F)c3ccc(Cl)cc32)C1 [NVS-PAK1-1] | 3.7 | 5 | 4.6 | 1.7 | 0 |  | 2.24 µM | 1.82 µM | > 10 µM | 104% | 104% | 98.7% | 93.4% | 51.3% | 99.8% | 101% | 108% | 92.3% | 31.4% | 103% | 112% | 91.9% | 90% | 44.8% | 84.8% | 120% | 90.9% | 110% | 56.4% | 108% | 104% | 93.6% | 97.3% | 93.4% | 
15 | CC(=O)/N=c1/[nH]c(C)c(-c2ccc(Cl)c(S(=O)(=O)NCCO)c2)s1 [PIK-93] | 3.6 | 1.1 | 5.3 | 3.2 | 7.8 |  | > 10 µM | 1.49 µM | 0.745 µM | 102% | 106% | 98.1% | 90.8% | 58.6% | 106% | 105% | 99% | 96.9% | 78.6% | 103% | 102% | 91% | 81.2% | 41.9% | 94% | 109% | 92.5% | 93.5% | 58.9% | 91.8% | 92.7% | 83.9% | 71.6% | 34.7% | 
